Measured values taken from PubChem BioAssay AID1963848 (Molecular Pharmacology Branch, DTP, NCI, 2024).

Tested on: 379773-124-R-J2-PDC spheroid viability
Experiment: Anticancer human tumor 379773-124-R-J2-PDC patient-derived endometrial carcinoma cell line growth inhibition [POLQ]
Settings: spheroids with HUVEC and MSC; for IC50: curve of first compound; for viability, T/C: stronger effect = lower value
In short: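 Patient-derived tumour cells were co-cultured with HUVEC and mesenchymal stem cells as multicellular spheroids at 37 °C. They were treated with POLQ inhibitors (novobiocin, ART-558, RP6685) alone or combined with other agents. Top concentrations were at or near clinical Cmax (otherwise 10 microM; SN-38 at 1 microM), decreasing in half-log steps.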

[1] = second compound 0.0316 µM, first compound 0.0316 µM
[2] = second compound 0.0316 µM, first compound 0.1 µM
[3] = second compound 0.0316 µM, first compound 0.316 µM
[4] = second compound 0.0316 µM, first compound 1 µM
[5] = second compound 0.0316 µM, first compound 3.16 µM
[6] = second compound 0.0316 µM, first compound 10 µM
[7] = second compound 0.1 µM, first compound 0.0316 µM
[8] = second compound 0.1 µM, first compound 0.1 µM
[9] = second compound 0.1 µM, first compound 0.316 µM
[10] = second compound 0.1 µM, first compound 1 µM
[11] = second compound 0.1 µM, first compound 3.16 µM
[12] = second compound 0.1 µM, first compound 10 µM
[13] = second compound 0.316 µM, first compound 0.0316 µM
[14] = second compound 0.316 µM, first compound 0.1 µM
[15] = second compound 0.316 µM, first compound 0.316 µM
[16] = second compound 0.316 µM, first compound 1 µM
[17] = second compound 0.316 µM, first compound 3.16 µM
[18] = second compound 0.316 µM, first compound 10 µM
[19] = second compound 1 µM, first compound 0.0316 µM
[20] = second compound 1 µM, first compound 0.1 µM
[21] = second compound 1 µM, first compound 0.316 µM
[22] = second compound 1 µM, first compound 1 µM
[23] = second compound 1 µM, first compound 3.16 µM
[24] = second compound 1 µM, first compound 10 µM
[25] = second compound 3.16 µM, first compound 0.0316 µM
[26] = second compound 3.16 µM, first compound 0.1 µM
[27] = second compound 3.16 µM, first compound 0.316 µM
[28] = second compound 3.16 µM, first compound 1 µM
[29] = second compound 3.16 µM, first compound 3.16 µM
[30] = second compound 3.16 µM, first compound 10 µM
[31] = second compound 10 µM, first compound 0.0316 µM
[32] = second compound 10 µM, first compound 0.1 µM
[33] = second compound 10 µM, first compound 0.316 µM
[34] = second compound 10 µM, first compound 1 µM
[35] = second compound 10 µM, first compound 3.16 µM
[36] = second compound 10 µM, first compound 10 µM
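Further: spheroids exposed to drugs for seven days before readout.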
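Wherever viability, T/C is given: percent viability relative to DMSO vehicle control taken as 100%.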

## C#Cc1c(F)ccc2cc(O)cc(-c3ncc4c(N5CC6CCC(C5)N6)nc(OCC56CCCN5CC(F)C6)nc4c3F)c12 (stereo unspecified) + Nc1ccc(C#CCN(C(=O)Cc2ncc(C(F)(F)F)cc2C(F)(F)F)c2ccc(F)cc2)nn1
Second compound 0.0316 µM
  IC50: > 10 µM
Second compound 0.1 µM
  IC50: > 10 µM
Second compound 0.316 µM
  IC50: > 10 µM
Second compound 1 µM
  IC50: > 10 µM
Second compound 3.16 µM
  IC50: > 10 µM
Second compound 10 µM
  IC50: > 10 µM
[1]
  viability, T/C: 92.3%
[2]
  viability, T/C: 91.9%
[3]
  viability, T/C: 95.5%
[4]
  viability, T/C: 89.1%
[5]
  viability, T/C: 95.8%
[6]
  viability, T/C: 101%
[7]
  viability, T/C: 92.7%
[8]
  viability, T/C: 110%
[9]
  viability, T/C: 88.6%
[10]
  viability, T/C: 98%
[11]
  viability, T/C: 103%
[12]
  viability, T/C: 107%
[13]
  viability, T/C: 91.3%
[14]
  viability, T/C: 89.3%
[15]
  viability, T/C: 92.1%
[16]
  viability, T/C: 94.3%
[17]
  viability, T/C: 104%
[18]
  viability, T/C: 111%
[19]
  viability, T/C: 84.5%
[20]
  viability, T/C: 97.6%
[21]
  viability, T/C: 99.9%
[22]
  viability, T/C: 86.1%
[23]
  viability, T/C: 106%
[24]
  viability, T/C: 103%
[25]
  viability, T/C: 99.3%
[26]
  viability, T/C: 88.7%
[27]
  viability, T/C: 105%
[28]
  viability, T/C: 103%
[29]
  viability, T/C: 103%
[30]
  viability, T/C: 104%
[31]
  viability, T/C: 88.9%
[32]
  viability, T/C: 88.6%
[33]
  viability, T/C: 98.5%
[34]
  viability, T/C: 85.6%
[35]
  viability, T/C: 91.3%
[36]
  viability, T/C: 102%

## CC1COCCN1c1cc(C2(S(C)(=N)=O)CC2)nc(-c2ccnc3[nH]ccc23)n1 (stereo unspecified) + Nc1ccc(C#CCN(C(=O)Cc2ncc(C(F)(F)F)cc2C(F)(F)F)c2ccc(F)cc2)nn1
Second compound 0.0316 µM
  IC50: 2.76 µM
Second compound 0.1 µM
  IC50: 3.07 µM
Second compound 0.316 µM
  IC50: 2.67 µM
Second compound 1 µM
  IC50: 3.05 µM
Second compound 3.16 µM
  IC50: 2.54 µM
Second compound 10 µM
  IC50: 2.64 µM
[1]
  viability, T/C: 89.8%
[2]
  viability, T/C: 90.3%
[3]
  viability, T/C: 86.5%
[4]
  viability, T/C: 89.9%
[5]
  viability, T/C: 44.8%
[6]
  viability, T/C: 9.42%
[7]
  viability, T/C: 89.2%
[8]
  viability, T/C: 89.6%
[9]
  viability, T/C: 87.9%
[10]
  viability, T/C: 83.5%
[11]
  viability, T/C: 49.1%
[12]
  viability, T/C: 9.47%
[13]
  viability, T/C: 89.8%
[14]
  viability, T/C: 97.5%
[15]
  viability, T/C: 87.1%
[16]
  viability, T/C: 84.4%
[17]
  viability, T/C: 44%
[18]
  viability, T/C: 10.4%
[19]
  viability, T/C: 97.9%
[20]
  viability, T/C: 101%
[21]
  viability, T/C: 87.9%
[22]
  viability, T/C: 85.3%
[23]
  viability, T/C: 48.1%
[24]
  viability, T/C: 10.3%
[25]
  viability, T/C: 93.5%
[26]
  viability, T/C: 85.6%
[27]
  viability, T/C: 78.5%
[28]
  viability, T/C: 89.3%
[29]
  viability, T/C: 41.3%
[30]
  viability, T/C: 11.1%
[31]
  viability, T/C: 95.7%
[32]
  viability, T/C: 85.3%
[33]
  viability, T/C: 90.9%
[34]
  viability, T/C: 86.4%
[35]
  viability, T/C: 43.2%
[36]
  viability, T/C: 9.54%

## COc1ccc([C@@H](O)c2cc(-c3ncnc4cc(N5CCOCC5)ccc34)c(F)cc2Cl)nn1 + Nc1ccc(C#CCN(C(=O)Cc2ncc(C(F)(F)F)cc2C(F)(F)F)c2ccc(F)cc2)nn1
Second compound 0.0316 µM
  IC50: 9.88 µM
Second compound 0.1 µM
  IC50: 7.66 µM
Second compound 0.316 µM
  IC50: 7.78 µM
Second compound 1 µM
  IC50: 9.09 µM
Second compound 3.16 µM
  IC50: 7.08 µM
Second compound 10 µM
  IC50: 8.7 µM
[1]
  viability, T/C: 98.9%
[2]
  viability, T/C: 104%
[3]
  viability, T/C: 101%
[4]
  viability, T/C: 83.8%
[5]
  viability, T/C: 89.1%
[6]
  viability, T/C: 48.4%
[7]
  viability, T/C: 90.3%
[8]
  viability, T/C: 104%
[9]
  viability, T/C: 89.6%
[10]
  viability, T/C: 95.2%
[11]
  viability, T/C: 77%
[12]
  viability, T/C: 41.6%
[13]
  viability, T/C: 98.4%
[14]
  viability, T/C: 96.2%
[15]
  viability, T/C: 99.3%
[16]
  viability, T/C: 91.4%
[17]
  viability, T/C: 105%
[18]
  viability, T/C: 36.7%
[19]
  viability, T/C: 97.4%
[20]
  viability, T/C: 83.9%
[21]
  viability, T/C: 85.6%
[22]
  viability, T/C: 99.9%
[23]
  viability, T/C: 79.5%
[24]
  viability, T/C: 47.4%
[25]
  viability, T/C: 91.8%
[26]
  viability, T/C: 92.1%
[27]
  viability, T/C: 82.6%
[28]
  viability, T/C: 90.3%
[29]
  viability, T/C: 76.4%
[30]
  viability, T/C: 38.8%
[31]
  viability, T/C: 90.8%
[32]
  viability, T/C: 87%
[33]
  viability, T/C: 87.8%
[34]
  viability, T/C: 85.9%
[35]
  viability, T/C: 105%
[36]
  viability, T/C: 44.2%
